Our source for the IC50 values is patent US10865191B2, “Heterocyclic compounds useful as modulators of TNF alpha” (BRISTOL-MYERS SQUIBB COMPANY, priority 2015, dated 2020).

The structures appear in SMILES notation. Where only a bound is given, the exact number is not on record here.

Sequence of TNFα (P01375 77-233 limits assumed): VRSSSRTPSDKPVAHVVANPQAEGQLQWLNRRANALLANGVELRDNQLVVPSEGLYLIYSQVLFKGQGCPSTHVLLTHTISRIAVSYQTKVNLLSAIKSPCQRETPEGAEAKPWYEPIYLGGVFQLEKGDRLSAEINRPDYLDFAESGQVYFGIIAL

The first test deals with TNFα (Homo sapiens, UniProt P01375). Nature of the test: TNF induced HEK-Blue assay (NF-kB-driven secreted alkaline phosphatase reporter). Type of test: cell-based. Conditions: TNF induced HEK-Blue assay IC50 value, TNFα 0.5 ng/mL, HEK-Blue-CD40L cells, 18 h. The method, then:
TNF or CD40L-Induced HEK-Blue Assay
Test compounds serially diluted in DMSO were plated in an assay plate (LABCYTE, Cat. # LP-0200) at final concentrations ranging from 0.004 μM to 25 μM. TNFα (final concentration 0.5 ng/mL) or CD40L (final concentration 30 ng/mL) in assay buffer [DMEM, 4.5 g/l glucose (Gibco, Cat. 21063-029), 10% FBS (Sigma, F4135), 1% Penicillin-Streptomycin (Gibco, Cat. 15140-122), 1% Anti-Anti (Gibco, Cat. 15240-112) and 2 mM L-glutamine (Gibco, Cat. 25030-081)] was then added to the assay plate. After a 30 minute pre-incubation at 37° C. and 5% CO2, HEK-Blue™-CD40L cells (INVIVOGEN, Cat. Code hkb-cd40) containing a NF-kB-driven secreted alkaline phosphatase reporter gene were seeded into the assay plate at a density of 20,000 cells per well. This plate was then incubated for 18 h at 37° C. and 5% CO2. Secreted alkaline phosphatase expression was measured using QUANTI-Blue™ (INVIVOGEN, Cat. Code rep-qb1) according to manufacturer's specifications and the assay plate was read on a PerkinElmer Envision at 620 nm.
Inhibition data for the test compound over a range of concentrations was plotted as percentage inhibition of the test compound (100%=maximum inhibition). IC50 values were determined after correcting for background [(sample read-mean of low control)/(mean of high control-mean of low control)] where by the low control is DMSO without stimulation and high control is DMSO with stimulation. The IC50 is defined as the concentration of test compound which produces 50% inhibition and was quantified using the 4 parameter logistic equation to fit the data.
`CC(Nc1c(Cl)cnc2cc(F)c(-c3cnc(C(C)(C)O)nc3)cc12)c1ccccc1F` (single isomer, unassigned) [Example 241, 2-(5-(3-chloro-7-fluoro-4-((1-(2-fluorophenyl)ethyl)amino)quinolin-6-yl)pyrimidin-2-yl)propan-2-ol]: the half-maximal inhibitory concentration (IC50) – broadly, the concentration that gives 50% inhibition – is less than 1 µM.
The compound `C[C@@H](Nc1c(Cl)cnc2ccc(-c3ccc(C(C)(C)O)cc3)cc12)c1ccccc1F` [Example 228, (R)-2-(4-(3-chloro-4-((1-(2-fluorophenyl)ethyl)amino)quinolin-6-yl)phenyl)propan-2-ol] had a half-maximal inhibitory concentration (IC50) of less than 1 µM.

Staying with this test, now noted: TNFα 0.5 ng/mL, HEK-Blue-CD40L cells, 18 h; read-out: TNF induced HEK-Blue assay IC50 value.
With `C[C@@H](Nc1c(Cl)cnc2ccccc12)c1cc(-c2cnn(CCN3CCOCC3)c2)ccc1F` [Example 480, (R)-3-chloro-N-(1-(2-fluoro-5-(1-(2-morpholinoethyl)-1H-pyrazol-4-yl)phenyl)ethyl)quinolin-4-amine], the IC50 lay in the range of 10 to 25 µM.
For `CC(C)(O)c1ncc(-c2nc3c(N[C@H](c4cc(CO)ccc4F)C(F)F)c(Cl)cnc3cc2F)cn1` [Example 486, (R)-2-(5-(7-chloro-8-((2,2-difluoro-1-(2-fluoro-5-(hydroxymethyl)phenyl)ethyl)amino)-3-fluoro-1,5-naphthyridin-2-yl)pyrimidin-2-yl)propan-2-ol], the 50% inhibitory concentration (IC50) is less than 1 µM.
Consider `C[C@@H](Nc1c(Cl)cnc2ccc(-c3cnc(C(C)(C)O)nc3)cc12)c1cc(C2=CCN(C(=O)OC(C)(C)C)CC2)ccc1F` [Example 337, tert-butyl (R)-4-(3-(1-((3-chloro-6-(2-(2-hydroxypropan-2-yl)pyrimidin-5-yl)quinolin-4-yl)amino)ethyl)-4-fluorophenyl)-3,6-dihydropyridine-1(2H)-carboxylate], for which the half-maximal inhibitory concentration (IC50) lay within 1 to 10 µM.
Regarding `Cc1ncc(-c2ccc(F)c([C@@H](C)Nc3c(Cl)c(C)nc4ccccc34)c2)cn1` [Example 534, (R)-3-chloro-N-(1-(2-fluoro-5-(2-methylpyrimidin-5-yl)phenyl)ethyl)-2-methylquinolin-4-amine], the half-maximal inhibitory concentration (IC50) is less than 1 µM.
Regarding `CC(C)(O)c1ncc(-c2nc3c(N[C@H](c4cc(C#N)ccc4F)C(F)F)c(Cl)cnc3cc2F)cn1` [Example 489, (R)-3-(1-((3-chloro-7-fluoro-6-(2-(2-hydroxypropan-2-yl)pyrimidin-5-yl)-1,5-naphthyridin-4-yl)amino)-2,2-difluoroethyl)-4-fluorobenzonitrile], the 50% inhibitory concentration (IC50) was less than 1 µM.
On the same count and under the same terms, next, `Cc1ccc(C)c(Nc2c(Cl)c(C)nc3ccc(-c4ccc(C(=O)NCCCCN)nc4)cc23)c1` [Example 65, N-(4-aminobutyl)-5-(3-chloro-4-((2,5-dimethylphenyl)amino)-2-methylquinolin-6-yl) picolinamide]: 1 to 10 µM; `C[C@@H](Nc1c(Cl)cnc2ccc(-c3ccc(C4(NCCO)CCC4)cc3)cc12)c1ccccc1F` [Example 568, (R)-2-((1-(4-(3-chloro-4-((1-(2-fluorophenyl)ethyl)amino)quinolin-6-yl)phenyl)cyclobutyl)amino)ethan-1-ol]: less than 1 µM; `C[C@@H](Nc1c(Cl)cnc2cccnc12)c1cc(-c2cncnc2)ccc1F` [Example 555, (R)-3-chloro-N-(1-(2-fluoro-5-(pyrimidin-5-yl)phenyl)ethyl)-1,5-naphthyridin-4-amine]: less than 1 µM.
As for `COc1ccc(F)c([C@@H](C)Nc2c(Cl)cnc3ccccc23)c1` [Example 451, (R)-3-chloro-N-(1-(2-fluoro-5-methoxyphenyl)ethyl)quinolin-4-amine], the 50% inhibitory concentration (IC50) lay in the range of 1 to 10 µM.
As for `C=CC(=O)N1CCN(c2ccc(-c3ccc4ncc(Cl)c(N[C@H](C)c5ccccc5F)c4c3)cn2)CC1` [Example 123, (R)-1-(4-(5-(3-chloro-4-((1-(2-fluorophenyl)ethyl)amino)quinolin-6-yl)pyridin-2-yl)piperazin-1-yl)prop-2-en-1-one], the IC50 was less than 1 µM.
Regarding `Cc1ccc(C)c(Nc2c(Cl)c(CO)nc3ccc(-c4cnc(C(C)(C)O)nc4)cc23)c1` [Example 44, 2-(5-(3-chloro-4-((2,5-dimethylphenyl)amino)-2-(hydroxymethyl)quinolin-6-yl)pyrimidin-2-yl)propan-2-ol], the half-inhibitory concentration (IC50) is less than 1 µM.
Regarding `Cc1nc2ccc(-c3cnc(C(C)(C)O)nc3)cc2c(N[C@@H](c2cc(C(C)(C)O)ccc2F)C(F)F)c1Cl` [Example 418, (S)-2-(5-(3-chloro-4-((2,2-difluoro-1-(2-fluoro-5-(2-hydroxypropan-2-yl)phenyl)ethyl)amino)-2-methylquinolin-6-yl)pyrimidin-2-yl)propan-2-ol], the IC50 is less than 1 µM.
In the case of `COc1ccc(F)c([C@@H](C)Nc2ccnc3ccc(Cl)cc23)c1` [Example 456, (R)-6-chloro-N-(1-(2-fluoro-5-methoxyphenyl)ethyl)quinolin-4-amine], the IC50 fell in the range of 10 to 25 µM.
With `C[C@@H](Nc1c(Cl)cnc2ccc(-c3ccc(C(N)CO)cc3)cc12)c1ccccc1F` (stereo partly drawn) [Example 100, 2-amino-2-(4-(3-chloro-4-(((R)-1-(2-fluorophenyl)ethyl)amino)quinolin-6-yl)phenyl)ethan-1-ol], the IC50 fell in the range of 1 to 10 µM.
With `C[C@@H](Nc1c(Cl)cnc2ccc(-c3ccc(N4CCN[C@H](CO)C4)nc3)cc12)c1ccccc1F` [Example 84, ((S)-4-(5-(3-chloro-4-(((R)-1-(2-fluorophenyl)ethyl)amino)quinolin-6-yl)pyridin-2-yl)piperazin-2-yl)methanol], the IC50 is less than 1 µM.
Turning to `CC(Nc1c(Cl)cnc2cc(F)c(-c3ccc(C4(O)CCC(C(=O)O)CC4)cc3)cc12)c1ccccc1F` (racemic) [Example 251, 4-(4-(3-chloro-7-fluoro-4-((1-(2-fluorophenyl)ethyl)amino)quinolin-6-yl)phenyl)-4-hydroxycyclohexane-1-carboxylic acid], the half-maximal inhibitory concentration (IC50) is less than 1 µM.
Turning to `Cc1ncccc1-c1ccc(F)c([C@@H](C)Nc2c(Cl)cnc3ccccc23)c1` [Example 475, (R)-3-chloro-N-(1-(2-fluoro-5-(2-methylpyridin-3-yl)phenyl)ethyl)quinolin-4-amine], the half-inhibitory concentration (IC50) lay within 1 to 10 µM.
On to `Cc1nc2cc(F)c(-c3cnc(N4CCNC(=O)C4)nc3)cc2c(N[C@H](C)c2cc(C#N)ccc2F)c1Cl` [Example 561, (R)-3-(1-((3-chloro-7-fluoro-2-methyl-6-(2-(3-oxopiperazin-1-yl)pyrimidin-5-yl)quinolin-4-yl)amino)ethyl)-4-fluorobenzonitrile], for which the IC50 is less than 1 µM.
With `CC(Nc1c(Cl)cnc2ccc(-c3cnc(C(C)(C)O)nc3)cc12)[C@H]1CCCN(CC(O)CO)C1` (stereo partly drawn) [Example 106, 3-((S)-3-((S)-1-((3-chloro-6-(2-(2-hydroxypropan-2-yl)pyrimidin-5-yl)quinolin-4-yl)amino)ethyl)piperidin-1-yl)propane-1,2-diol], the IC50 fell in the range of 1 to 10 µM.
As to `CC(Nc1c(Cl)cnc2cc(F)c(-c3cnc(C(C)(O)CO)nc3)cc12)c1ccccc1F` (centres unmarked) [Example 257, 2-(5-(3-chloro-7-fluoro-4-((1-(2-fluorophenyl)ethyl)amino)quinolin-6-yl)pyrimidin-2-yl)propane-1,2-diol], the half-inhibitory concentration (IC50) is less than 1 µM.
For the compound `CC(Nc1c(Cl)cnc2ccc(-c3ccc(C(C)(C)O)cc3)cc12)c1cccs1` (racemic) [Example 199, 2-(4-(3-chloro-4-((1-(thiophen-2-yl)ethyl)amino)quinolin-6-yl)phenyl)propan-2-ol], the half-inhibitory concentration (IC50) was less than 1 µM.
